# Assays:
# [1] = system: C57BL/6 mice, CCl4 liver fibrosis model; assay: CCl4-induced liver fibrosis mouse model, collagen staining of liver sections; type: in vivo; conditions: 17 mg/kg C1632 after each CCl4 injection
# Procedure: C57BL/6 mice were divided into normal control group, CCl4 group and CCl4+C1632 group, with 7 mice in each group. The mice in the CCl4+C1632 group were injected with 17 mg/kg C1632 for treatment after each injection of CCl4. At the end of the experiment, the mice were sacrificed, and the obtained livers were fixed with 4% paraformaldehyde, dehydrated, embedded and sliced.
# 1. The collagen fibers in the tissue were stained blue through Masson staining, and the muscle fibers and cytoplasm were stained red through Masson staining. The sections were routinely deparaffinized to water and stained with Weigert's hematoxylin for 5 to 10 minutes. The sections were differentiated with 1% hydrochloric alcohol differentiation solution and washed with water. The sections was returned blue by using Masson bluing solution and washed with water for 1 min. The sections were stained with Ponceau fuchsin staining solution for 5 to 10 min, soaked in 1% glacial acetic acid for a moment, then washed with the phosphomolybdic acid solution for 1 to 2 min. The sections were stained in the aniline blue staining solution for 1 to 2 min after washed with 1% glacial acetic acid for 1 min. The sections were rinsed with 1% glacial acetic acid in three consecutive cylinders for about 8 s, then successively dehydrated by three consecutive cylinders of absolute ethanol for about 5 s, 10 s, and 30 s, and dehydrated by two cylinders of n-butyl alcohol for 30 s and 2 min in turn, and finally permeabilized by two cylinders of xylene for 5 min each time, and sealed with neutral gum.
# 2. To further verify the effect of C1632 on liver fibrosis, the above tissue sections were subjected to Van Gieson (VG) staining, which was a mature connective tissue staining method to distinguish collagen fibers from muscle fibers. Paraffin sections were deparaffinized into water, and then placed into VG staining solution prepared with acid fuchsin and picric acid, stained for 1 min, quickly washed with water, and quickly dehydrated in three cylinders of absolute ethanol. The sections were placed into xylene for permeabilizing, then sealed with neutral gum and photographed under a microscope.
# The sections deparaffinized to water were oxidized with Gordon-Sweets oxidizer for 5 min. After washing with water, the sections were bleached with oxalic acid solution for 1 to 2 min. After washing with distilled water, the sections were mordanted with ferric ammonium sulfate solution for 5 min, then rinsed briefly with water. Gordon-Sweets silver ammonia solution was dropwise added for staining for 3 min. The sections were briefly washed with distilled water, reduced with Gordon-Sweets reducing agent for 1 min and rinsed under running water for 10 min. The nucleus was stained with nuclear fast red staining solution for 5-10 min. […]
# [2] = system: C57BL/6 mice; assay: Safety profile in IPF model and control mice: body weight and routine blood test; type: in vivo
# Procedure: In order to test the safety profile of C1632, the IPF model C57BL/6 mice and the control mice were intraperitoneally injected with 68 mg/kg C1632 three times a week and weighed, respectively. At the end of the experiment, the whole blood was a collected for routine blood test. […] In addition, the routine blood test results of mice in each group are mostly within the reference interval.
# [3] = system: IPF mice (C57BL/6, bleomycin); assay: Bleomycin-induced idiopathic pulmonary fibrosis (IPF) mouse model; type: in vivo
# Procedure: A mouse model of […] was constructed by injecting bleomycin (2 mg/kg) into the lungs of the mice through the airway after anesthesia.
# (1) Sacrificing the mice after anesthesia, and weighing the lungs and recording as Mlung; {umlaut over (2)} weighing the empty 1.5 mL centrifuge tube, filling with normal saline and the recording the weight of the centrifuge tube again; calculating the exact volume of the tube (Vtube) based on the weight and density of normal saline; (3) completely immersing the lung tissue in the normal saline of the centrifuge tube, covering the lid of centrifuge tube after removing the air, wiping off the water stains around the tube, and recording the weight as M; (4) calculating the weight of normal saline in the tube: […]; (5) calculating the volume of normal saline in the tube: Vsaline=[…], wherein, ρsaline is the density of normal saline; (6) calculating lung volume: Vlung=Vtube−Vsaline; and (7) calculating lung density: μlung=Mlung/Vlung.
# The lung tissues were fixed by immersion in 4% paraformaldehyde and then gradiently dehydrated in 70% ethanol for 5 hours, 80% ethanol for 1 h, 90% ethanol for 1 h, 95% ethanol for 1 h, absolute ethanol for 1 h, absolute ethanol for 0.5 h, absolute ethanol+TO (1:1) for 1 h, TO for 1 h, TO for 1 h, paraffin (62° C.) for 1 h, paraffin (62° C.) for 1 h, paraffin (62° C.) for 1 h. After dehydration, the lung tissues were wrapped in the wax blocks and sectioned with a thickness of 4 μm. The paraffin sections were baked at 65° C. for 1 h and then exposed to xylene for 5 min, xylene for 5 min, absolute ethanol for 5 min, 95% ethanol for 5 min, 90% ethanol for 5 min, 85% ethanol for 5 min, 75% ethanol for 5 min; then, gently boiled in citric acid solution for 10 min and naturally cooled to room temperature, and exposed to 3% hydrogen peroxide for 10 min. The sections were blocked with goat antiserum for 1 h at room temperature, incubated overnight with primary antibodies against CD45 (abeam), CD3 (abeam) or CD68 (abeam), then washed 3 times with PBS for 5 min each time, and then incubated with immunohistochemical secondary antibodies (Fujian Maixin) at room temperature for 20 min. Then, the sections was subjected to color development for 2 min by using DAB chromogenic kit (Fujian Maixin), rinsed with water to remove DAB, stained with hematoxylin for 2 min and rinsed with running water for 8 minutes to return blue. After drying, the sections were sealed with neutral gum and photographed.
# In this example, the degree of fibrosis in lung tissue was detected through Masson staining, using the Masson trichrome staining kit (Fujian Maixin).
# To investigate whether C1632 can be used for the treatment of IPF, the inventors treated IPF mice with C1632 according to the method of FIG. 9A, and divided the mice into (1) normal mice+normal saline group; (2) normal mice+C1632 group; (3) IPF mice+normal saline group; and (4) IPF mice+C1632 group, each group had at least 4 mice. At the end of the experiment, the lung tissues of the mice were taken and photographed. […] The lungs of the model group are dark red, and some lung lobes are gray white, hardened, and scattered gray white plaques of different sizes could be seen.
# [4] = stated for a known small molecule drug, no test described; cited from earlier work
# [5] = normal mice, 68 mg/kg i.p. three times a week
structure (smiles),measurement,setting,value
CC(=O)N(C)c1cccc(-c2ccc3nnc(C)n3n2)c1 [C1632],"Collagen fibers in liver tissue, Masson staining","[1]; twice a week for 6 weeks, FIG. 5",can inhibit the expression of collagen fibers induced by CCl4
same,"Collagen fiber levels in liver tissue, Van Gieson (VG) staining",[1]; FIG. 6,significantly reduces collagen fiber levels
same,"Reticular fibers in liver tissue, reticular fiber staining",[1]; FIG. 7,can inhibit the expression of reticular fibers induced by CCl4
same,"Type I collagen production in liver, Sirius red staining","[1]; polarized light, FIG. 8",can significantly inhibit the production of type I collagen
same,Routine blood tests overall,"[2]; IPF mice, 68 mg/kg i.p. three times a week, FIG. 11B to 11S",does not cause deterioration
same,Body weight compared with the corresponding saline group,"[2]; IPF model and control mice, 68 mg/kg intraperitoneally three times a week, FIG. 11A",does not significantly change the body weight
same,"Mean platelet volume (MPV), model group","[2]; IPF model mice, 68 mg/kg i.p. three times a week",no significant effect
same,"PDW, fibrotic mice","[2]; fibrotic (IPF) mice, 68 mg/kg i.p. three times a week",no significant effect
same,"Mean platelet volume (MPV), normal mice",[2]; [5],significantly increase
same,"PDW, normal mice",[2]; [5],significantly inhibits
same,Lung density relative to water (lung lobes placed in water),"[3]; IPF mice + C1632, FIG. 9C",less dense than water
same,Lung density (drainage method),"[3]; IPF mice + C1632 vs IPF mice + saline, FIG. 9D",significantly reduced
same,"Lung shape, color and hardness (gross appearance)","[3]; IPF mice + C1632 vs control group, FIG. 9B",closer to those of the control group
same,"Infiltration of CD45 (total immune cells) in lung, IHC","[3]; IPF mice, injection of C1632, FIG. 10A, 10B",significantly reduces the infiltration of immune cells
same,"Infiltration of CD68 (macrophages) in lung, IHC","[3]; IPF mice, injection of C1632, FIG. 10A, 10C",significantly reduces the infiltration
same,"Infiltration of CD3 (T cells) in lung, IHC","[3]; IPF mice, injection of C1632, FIG. 10A, 10D",significantly reduces the infiltration
same,Hydroxyproline content in lung,"[3]; IPF mice, FIG. 9I",significantly inhibit the increase of hydroxyproline
same,"Alveolar architecture and fibrosis areas, H&E and Masson staining","[3]; lungs of C1632-treated IPF mice, FIG. 9E to 9G",more alveolar architecture and less fibrosis areas
same,Solubility,[4],"can be dissolved in water, ethanol or DMSO"
same,Thermal stability,[4],good thermal stability

# Reference: patent US20240277708A1, “Use of [1,2,4] Triazolo [4,3-B] Pyridazine Derivative For Preventing and Treating Senescence and Senescence-Related Diseases” (The Eighth Affiliated Hospital, Sun Yat-Sen University, priority 2023, published 2024)
